Reference: patent US20200231614A1, “PSMA TARGETED RADIOHALOGENATED UREAS FOR CANCER RADIOTHERAPY” (THE JOHNS HOPKINS UNIVERSITY, priority 2015, published 2020)
Where two headings read alike, the source gives them in different places.

Legend:
[1] = test system: PSMA + PC-3 PiP and PSMA − PC-3 flu tumor xenografts; settings: radioiodinated compound, Chen et al., 2008; cited from earlier work
[2] = test system: PSMA + PC-3 PiP and PSMA − PC-3 flu tumor xenografts; settings: for Biodistribution: PC-3 PiP: PSMA+ tumor xenograft; for Biodistribution: PC-3 flu: PSMA− tumor xenograft
[3] = 21 H post-injection, comparative Table 13

O=C(O)CC[C@H](NC(=O)N[C@@H](CCCCNC(=O)c1ccc(I)cc1)C(=O)O)C(=O)O [YC-I-27]
Tumor uptake (in words) [1]: high and prolonged tumor uptake

O=C(O)CC[C@H](NC(=O)N[C@@H](CSCc1ccc([125I])cc1)C(=O)O)C(=O)O [[^125I] labeled DCIBC, (S)-2-(3-((R)-1-carboxy-2-(4-[^125I]iodobenzylthio)ethyl)ureido)-pentanedioic Acid]
Biodistribution: Lrg Int. ([2]; 1 H post-injection): 1.2 ± 0.1 % ID/g
Biodistribution: PSMA + tumor ([2]; 1 H post-injection): 8.0 ± 1.3 % ID/g
Biodistribution: PSMA − tumor ([2]; 1 H post-injection): 1.3 ± 0.2 % ID/g
Biodistribution: Sm int. ([2]; 1 H post-injection): 1.2 ± 0.3 % ID/g
Biodistribution: blood ([2]; 1 H post-injection): 5.8 ± 2.3 % ID/g
Biodistribution: heart ([2]; 1 H post-injection): 1.5 ± 0.2 % ID/g
Biodistribution: kidney ([2]; 1 H post-injection): 77 ± 17 % ID/g
Biodistribution: liver ([2]; 1 H post-injection): 20 ± 4 % ID/g
Biodistribution: lung ([2]; 1 H post-injection): 2.2 ± 0.4 % ID/g
Biodistribution: muscle ([2]; 1 H post-injection): 1.0 ± 0.8 % ID/g
Biodistribution: spleen ([2]; 1 H post-injection): 5.1 ± 2.2 % ID/g
Biodistribution: Lrg Int. ([2]; 2 H post-injection): 1.2 ± 0.5 % ID/g
Biodistribution: PSMA + tumor ([2]; 2 H post-injection): 5.6 ± 1.3 % ID/g
Biodistribution: PSMA − tumor ([2]; 2 H post-injection): 0.9 ± 0.1 % ID/g
Biodistribution: Sm int. ([2]; 2 H post-injection): 1.1 ± 0.2 % ID/g
Biodistribution: blood ([2]; 2 H post-injection): 4.9 ± 2.6 % ID/g
Biodistribution: heart ([2]; 2 H post-injection): 1.1 ± 0.2 % ID/g
Biodistribution: kidney ([2]; 2 H post-injection): 30 ± 8 % ID/g
Biodistribution: liver ([2]; 2 H post-injection): 17 ± 4 % ID/g
Biodistribution: lung ([2]; 2 H post-injection): 1.9 ± 0.5 % ID/g
Biodistribution: muscle ([2]; 2 H post-injection): 0.5 ± 0.2 % ID/g
Biodistribution: spleen ([2]; 2 H post-injection): 3.2 ± 0.6 % ID/g
Biodistribution: Lrg Int. ([2]; 5 H post-injection): 2.7 ± 1.9 % ID/g
Biodistribution: PSMA + tumor ([2]; 5 H post-injection): 5.5 ± 0.6 % ID/g
Biodistribution: PSMA − tumor ([2]; 5 H post-injection): 1.0 ± 0.3 % ID/g
Biodistribution: Sm Int. ([2]; 5 H post-injection): 1.7 ± 1.5 % ID/g
Biodistribution: blood ([2]; 5 H post-injection): 3.3 ± 1.1 % ID/g
Biodistribution: heart ([2]; 5 H post-injection): 0.9 ± 0.5 % ID/g
Biodistribution: kidney ([2]; 5 H post-injection): 18 ± 6 % ID/g
Biodistribution: liver ([2]; 5 H post-injection): 17 ± 1 % ID/g
Biodistribution: lung ([2]; 5 H post-injection): 1.0 ± 0.5 % ID/g
Biodistribution: muscle ([2]; 5 H post-injection): 0.4 ± 0.2 % ID/g
Biodistribution: spleen ([2]; 5 H post-injection): 3.9 ± 1.1 % ID/g

N=C(N)NCc1ccc(C(=O)NCCCC[C@H](NC(=O)N[C@@H](CCC(=O)O)C(=O)O)C(=O)O)cc1[131I] [[^131I] labeled 7 (PSMA-620)]
Biodistribution: Sm int. ([2]; 1 H post-injection): 3.14 ± 0.66 % ID/g
Biodistribution: bladder ([2]; 1 H post-injection): 1.99 ± 0.50 % ID/g
Biodistribution: blood ([2]; 1 H post-injection): 0.95 ± 0.15 % ID/g
Biodistribution: heart ([2]; 1 H post-injection): 1.29 ± 0.37 % ID/g
Biodistribution: kidney ([2]; 1 H post-injection): 103 ± 24.0 % ID/g
Biodistribution: liver ([2]; 1 H post-injection): 8.25 ± 2.47 % ID/g
Biodistribution: lung ([2]; 1 H post-injection): 3.29 ± 0.56 % ID/g
Biodistribution: muscle ([2]; 1 H post-injection): 0.56 ± 0.05 % ID/g
Biodistribution: spleen ([2]; 1 H post-injection): 17.1 ± 3.71 % ID/g
Biodistribution: stomach ([2]; 1 H post-injection): 2.01 ± 0.41 % ID/g
Biodistribution: thyroid ([2]; 1 H post-injection): 0.79 ± 0.17 % ID/g
Biodistribution: Sm int. ([2]; 2 H post-injection): 2.29 ± 0.69 % ID/g
Biodistribution: bladder ([2]; 2 H post-injection): 1.65 ± 0.48 % ID/g
Biodistribution: blood ([2]; 2 H post-injection): 0.58 ± 0.08 % ID/g
Biodistribution: heart ([2]; 2 H post-injection): 0.89 ± 0.18 % ID/g
Biodistribution: kidney ([2]; 2 H post-injection): 89.0 ± 5.18 % ID/g
Biodistribution: liver ([2]; 2 H post-injection): 5.62 ± 1.17 % ID/g
Biodistribution: lung ([2]; 2 H post-injection): 1.99 ± 0.23 % ID/g
Biodistribution: muscle ([2]; 2 H post-injection): 0.34 ± 0.08 % ID/g
Biodistribution: spleen ([2]; 2 H post-injection): 6.81 ± 3.20 % ID/g
Biodistribution: stomach ([2]; 2 H post-injection): 2.55 ± 0.69 % ID/g
Biodistribution: thyroid ([2]; 2 H post-injection): 0.77 ± 0.25 % ID/g
Biodistribution: Sm int. ([2]; 4 H post-injection): 1.32 ± 0.68 % ID/g
Biodistribution: bladder ([2]; 4 H post-injection): 1.96 ± 1.10 % ID/g
Biodistribution: blood ([2]; 4 H post-injection): 0.30 ± 0.08 % ID/g
Biodistribution: heart ([2]; 4 H post-injection): 0.75 ± 0.34 % ID/g
Biodistribution: kidney ([2]; 4 H post-injection): 77.7 ± 38.8 % ID/g
Biodistribution: liver ([2]; 4 H post-injection): 4.37 ± 2.96 % ID/g
Biodistribution: lung ([2]; 4 H post-injection): 1.69 ± 0.67 % ID/g
Biodistribution: muscle ([2]; 4 H post-injection): 0.23 ± 0.10 % ID/g
Biodistribution: spleen ([2]; 4 H post-injection): 3.63 ± 2.40 % ID/g
Biodistribution: stomach ([2]; 4 H post-injection): 2.87 ± 0.55 % ID/g
Biodistribution: thyroid ([2]; 4 H post-injection): 0.75 ± 0.17 % ID/g
Biodistribution: Sm int. ([2]; 14 H post-injection): 0.42 ± 0.12 % ID/g
Biodistribution: bladder ([2]; 14 H post-injection): 0.74 ± 0.35 % ID/g
Biodistribution: blood ([2]; 14 H post-injection): 0.16 ± 0.04 % ID/g
Biodistribution: heart ([2]; 14 H post-injection): 0.48 ± 0.12 % ID/g
Biodistribution: kidney ([2]; 14 H post-injection): 17.2 ± 10.7 % ID/g
Biodistribution: liver ([2]; 14 H post-injection): 0.60 ± 0.28 % ID/g
Biodistribution: lung ([2]; 14 H post-injection): 1.02 ± 0.27 % ID/g
Biodistribution: muscle ([2]; 14 H post-injection): 0.10 ± 0.02 % ID/g
Biodistribution: spleen ([2]; 14 H post-injection): 1.27 ± 0.42 % ID/g
Biodistribution: stomach ([2]; 14 H post-injection): 2.24 ± 1.08 % ID/g
Biodistribution: thyroid ([2]; 14 H post-injection): 0.74 ± 0.27 % ID/g
Biodistribution: Sm int. ([2]; 21 H post-injection): 0.31 ± 0.07 % ID/g
Biodistribution: bladder ([2]; 21 H post-injection): 0.56 ± 0.37 % ID/g
Biodistribution: blood ([2]; 21 H post-injection): 0.09 ± 0.07 % ID/g
Biodistribution: heart ([2]; 21 H post-injection): 0.40 ± 0.11 % ID/g
Biodistribution: kidney ([2]; 21 H post-injection): 7.52 ± 1.82 % ID/g
Biodistribution: liver ([2]; 21 H post-injection): 0.33 ± 0.06 % ID/g
Biodistribution: lung ([2]; 21 H post-injection): 1.00 ± 0.21 % ID/g
Biodistribution: muscle ([2]; 21 H post-injection): 0.09 ± 0.01 % ID/g
Biodistribution: spleen ([2]; 21 H post-injection): 0.93 ± 0.37 % ID/g
Biodistribution: stomach ([2]; 21 H post-injection): 1.91 ± 0.95 % ID/g
Biodistribution: thyroid ([2]; 21 H post-injection): 0.88 ± 0.13 % ID/g
Biodistribution: PC-3 PiP ([2]; 1 H post-injection): 16.5 ± 4.78 % ID/g
Biodistribution: PC-3 PiP ([2]; 2 H post-injection): 17.2 ± 4.34 % ID/g
Biodistribution: PC-3 PiP ([2]; 4 H post-injection): 18.3 ± 4.27 % ID/g
Biodistribution: PC-3 PiP ([2]; 14 H post-injection): 15.8 ± 2.42 % ID/g
Biodistribution: PC-3 PiP ([2]; 21 H post-injection): 13.6 ± 3.33 % ID/g
Biodistribution: PC-3 flu ([2]; 1 H post-injection): 1.09 ± 0.21 % ID/g
Biodistribution: PC-3 flu ([2]; 2 H post-injection): 0.80 ± 0.11 % ID/g
Biodistribution: PC-3 flu ([2]; 4 H post-injection): 0.57 ± 0.21 % ID/g
Biodistribution: PC-3 flu ([2]; 14 H post-injection): 0.28 ± 0.10 % ID/g
Biodistribution: PC-3 flu ([2]; 21 H post-injection): 0.20 ± 0.08 % ID/g

O=C(O)CC[C@H](NC(=O)N[C@@H](CCC(=O)NCCc1ccc([211At])cc1)C(=O)O)C(=O)O [[^211At]HS-549]
Biodistribution: Lrg Int. ([2]; 1 H post-injection): 1.16 ± 0.20 % ID/g
Biodistribution: Sm int. ([2]; 1 H post-injection): 5.52 ± 0.82 % ID/g
Biodistribution: bladder ([2]; 1 H post-injection): 5.85 ± 1.62 % ID/g
Biodistribution: blood ([2]; 1 H post-injection): 5.53 ± 0.84 % ID/g
Biodistribution: heart ([2]; 1 H post-injection): 4.34 ± 0.96 % ID/g
Biodistribution: kidney ([2]; 1 H post-injection): 46.7 ± 8.24 % ID/g
Biodistribution: liver ([2]; 1 H post-injection): 7.94 ± 2.15 % ID/g
Biodistribution: lung ([2]; 1 H post-injection): 9.77 ± 1.75 % ID/g
Biodistribution: muscle ([2]; 1 H post-injection): 1.11 ± 0.29 % ID/g
Biodistribution: spleen ([2]; 1 H post-injection): 8.79 ± 2.09 % ID/g
Biodistribution: stomach ([2]; 1 H post-injection): 7.07 ± 2.24 % ID/g
Biodistribution: thyroid ([2]; 1 H post-injection): 3.24 ± 0.56 % ID/g
Biodistribution: Lrg Int. ([2]; 2 H post-injection): 4.59 ± 0.81 % ID/g
Biodistribution: Sm int. ([2]; 2 H post-injection): 3.81 ± 1.24 % ID/g
Biodistribution: bladder ([2]; 2 H post-injection): 5.04 ± 0.87 % ID/g
Biodistribution: blood ([2]; 2 H post-injection): 2.87 ± 0.40 % ID/g
Biodistribution: heart ([2]; 2 H post-injection): 3.36 ± 0.59 % ID/g
Biodistribution: kidney ([2]; 2 H post-injection): 40.4 ± 15.5 % ID/g
Biodistribution: liver ([2]; 2 H post-injection): 4.65 ± 1.28 % ID/g
Biodistribution: lung ([2]; 2 H post-injection): 8.24 ± 2.25 % ID/g
Biodistribution: muscle ([2]; 2 H post-injection): 0.76 ± 0.18 % ID/g
Biodistribution: spleen ([2]; 2 H post-injection): 6.13 ± 1.59 % ID/g
Biodistribution: stomach ([2]; 2 H post-injection): 14.3 ± 3.18 % ID/g
Biodistribution: thyroid ([2]; 2 H post-injection): 4.11 ± 2.0 % ID/g
Biodistribution: Lrg Int. ([2]; 21 H post-injection): 0.93 ± 0.41 % ID/g
Biodistribution: Sm int. ([2]; 21 H post-injection): 1.28 ± 0.30 % ID/g
Biodistribution: bladder ([2]; 21 H post-injection): 2.78 ± 0.82 % ID/g
Biodistribution: blood ([2]; 21 H post-injection): 0.92 ± 0.15 % ID/g
Biodistribution: kidney ([2]; 21 H post-injection): 2.60 ± 0.77 % ID/g
Biodistribution: liver ([2]; 21 H post-injection): 0.89 ± 0.13 % ID/g
Biodistribution: lung ([2]; 21 H post-injection): 4.26 ± 0.72 % ID/g
Biodistribution: muscle ([2]; 21 H post-injection): 0.29 ± 0.09 % ID/g
Biodistribution: spleen ([2]; 21 H post-injection): 2.31 ± 0.67 % ID/g
Biodistribution: stomach ([2]; 21 H post-injection): 12.6 ± 6.20 % ID/g
Biodistribution: thyroid ([2]; 21 H post-injection): 3.78 ± 0.63 % ID/g
Non-target organ uptake: spleen [2, 3]: 2.2 % D/g
Non-target organ uptake: stomach [2, 3]: 12.6 % D/g
Non-target organ uptake: thyroid [2, 3]: 3.8 % D/g
Biodistribution: PC-3 PiP ([2]; 1 H post-injection): 43.25 ± 9.81 % ID/g
Biodistribution: PC-3 PiP ([2]; 2 H post-injection): 42.0 ± 7.16 % ID/g
Biodistribution: PC-3 PiP ([2]; 21 H post-injection): 10.6 ± 9.91 % ID/g
Biodistribution: PC-3 flu ([2]; 1 H post-injection): 3.48 ± 0.53 % ID/g
Biodistribution: PC-3 flu ([2]; 2 H post-injection): 2.82 ± 0.60 % ID/g
PSMA positive tumor uptake (in words) ([2]; biodistributions of Tables 2, 3, 9, 10): demonstrated PSMA positive tumor uptake
Renal clearance and normal tissue uptake (in words) ([2]; compared with YC-I-27): faster renal clearance and lower normal tissue uptake than YC-I-27
Clearance from the kidneys (in words) ([2]; compared with [^131I]YC-I-27 and [^211At]YC-I-27): clear from the kidneys giving higher tumor to kidney ratios
In vivo stability of the At-211 label (in words) ([2]; from uptake in stomach, spleen and thyroid compared to the ^131I analogue): some instability of the At-211 label
